{"source": "patent US12275835B1", "about": "“High clarity antimicrobial resins” (Phoenix Plastics L.P., priority 2020, dated 2025)", "origin": "cited, not measured here", "key": {"Gram-negative bacteria": {"tested_on": "Gram-negative bacteria", "settings": "within 30 seconds"}, "Gram-positive bacteria": {"tested_on": "Gram-positive bacteria", "settings": "within 30 seconds"}}, "data": [{"smiles": "N=C(NCCCCCCNC(=N)NC(=N)Nc1ccc(Cl)cc1)NC(=N)Nc1ccc(Cl)cc1", "note": "[chlorhexidine]", "values": [{"measurement": "kill of Gram-negative bacteria", "setting": "Gram-negative bacteria", "result": "~100", "unit": "%"}, {"measurement": "kill of Gram-positive bacteria", "setting": "Gram-positive bacteria", "result": "~100", "unit": "%"}]}]}
